Test results published in PubChem BioAssay (NCI).
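Step 1: Grow cells in 96-well plates. Step 2: Expose to compound for 48 hours at 5 concentrations. Step 3: Interpolate endpoints linearly; if unreached, use highest concentration. The concentration for full growth arrest is given as TGI.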

How the values were obtained:
Assay in all cases: NCI-60 cell line screen, 48 h
786-0 renal = system: 786-0 renal
A498 renal = system: A498 renal
A549 NSCLC = system: A549 NSCLC
ACHN renal = system: ACHN renal
CAKI-1 renal = system: CAKI-1 renal
COLO 205 colon = system: COLO 205 colon
DLD-1 colon = system: DLD-1 colon
DMS 114 small cell lung = system: DMS 114 small cell lung
DMS 273 small cell lung = system: DMS 273 small cell lung
EKVX NSCLC = system: EKVX NSCLC
HCC-2998 colon = system: HCC-2998 colon
HCT-116 colon = system: HCT-116 colon
HL-60(TB) leukemia = system: HL-60(TB) leukemia
HOP-18 NSCLC = system: HOP-18 NSCLC
HOP-62 NSCLC = system: HOP-62 NSCLC
HOP-92 NSCLC = system: HOP-92 NSCLC
HT29 colon = system: HT29 colon
IGROV1 ovarian = system: IGROV1 ovarian
K-562 leukemia = system: K-562 leukemia
KM12 colon = system: KM12 colon
KM20L2 colon = system: KM20L2 colon
LOX IMVI melanoma = system: LOX IMVI melanoma
LXFL 529 NSCLC = system: LXFL 529 NSCLC
M14 melanoma = system: M14 melanoma
M19-MEL melanoma = system: M19-MEL melanoma
MALME-3M melanoma = system: MALME-3M melanoma
MOLT-4 leukemia = system: MOLT-4 leukemia
NCI-H226 lung = system: NCI-H226 lung
NCI-H23 lung = system: NCI-H23 lung
NCI-H460 lung = system: NCI-H460 lung
NCI-H522 lung = system: NCI-H522 lung
OVCAR-3 ovarian = system: OVCAR-3 ovarian
OVCAR-4 ovarian = system: OVCAR-4 ovarian
OVCAR-5 ovarian = system: OVCAR-5 ovarian
OVCAR-8 ovarian = system: OVCAR-8 ovarian
RPMI-8226 leukemia = system: RPMI-8226 leukemia
RXF 393 renal = system: RXF 393 renal
RXF-631 renal = system: RXF-631 renal
SF-268 CNS = system: SF-268 CNS
SF-295 CNS = system: SF-295 CNS
SF-539 CNS = system: SF-539 CNS
SK-MEL-28 melanoma = system: SK-MEL-28 melanoma
SK-MEL-5 melanoma = system: SK-MEL-5 melanoma
SK-OV-3 ovarian = system: SK-OV-3 ovarian
SN12C renal = system: SN12C renal
SNB-19 CNS = system: SNB-19 CNS
SNB-78 CNS = system: SNB-78 CNS
SW-620 colon = system: SW-620 colon
TK-10 renal = system: TK-10 renal
U251 CNS = system: U251 CNS
UACC-257 melanoma = system: UACC-257 melanoma
UACC-62 melanoma = system: UACC-62 melanoma
UO-31 renal = system: UO-31 renal
CCRF-CEM leukemia = system: CCRF-CEM leukemia
HCT-15 colon = system: HCT-15 colon
SK-MEL-2 melanoma = system: SK-MEL-2 melanoma
SNB-75 CNS = system: SNB-75 CNS
SR leukemia = system: SR leukemia

## Cc1cc(C)nc(NS(=O)(=O)c2ccc(NC(=O)c3ccc(Cl)c4c(Nc5ccc(S(=O)(=O)Nc6cc(C)on6)cc5)c5ccccc5nc34)cc2)n1
786-0 renal
  TGI: 30.9 µM
A498 renal
  TGI: 29.1 µM
A549 NSCLC
  TGI: 40.7 µM
ACHN renal
  TGI: 36.1 µM
CAKI-1 renal
  TGI: 29.5 µM
COLO 205 colon
  TGI: 32.3 µM
DLD-1 colon
  TGI: 31.6 µM
DMS 114 small cell lung
  TGI: 32.6 µM
DMS 273 small cell lung
  TGI: 31.9 µM
EKVX NSCLC
  TGI: 33.9 µM
HCC-2998 colon
  TGI: 33 µM
HCT-116 colon
  TGI: 39.9 µM
HL-60(TB) leukemia
  TGI: 27.2 µM
HOP-18 NSCLC
  TGI: 29.2 µM
HOP-62 NSCLC
  TGI: 30.6 µM
HOP-92 NSCLC
  TGI: 30.3 µM
HT29 colon
  TGI: 35.8 µM
IGROV1 ovarian
  TGI: 37.3 µM
K-562 leukemia
  TGI: 68.5 µM
KM12 colon
  TGI: 33.7 µM
KM20L2 colon
  TGI: 32.6 µM
LOX IMVI melanoma
  TGI: 30 µM
LXFL 529 NSCLC
  TGI: 30.7 µM
M14 melanoma
  TGI: 36.3 µM
M19-MEL melanoma
  TGI: 39.7 µM
MALME-3M melanoma
  TGI: 40 µM
MOLT-4 leukemia
  TGI: 70.9 µM
NCI-H226 lung
  TGI: 32.9 µM
NCI-H23 lung
  TGI: 29.7 µM
NCI-H460 lung
  TGI: 36.3 µM
NCI-H522 lung
  TGI: 31.8 µM
OVCAR-3 ovarian
  TGI: 30.4 µM
OVCAR-4 ovarian
  TGI: 30.7 µM
OVCAR-5 ovarian
  TGI: 35.7 µM
OVCAR-8 ovarian
  TGI: 30.9 µM
RPMI-8226 leukemia
  TGI: 50.3 µM
RXF 393 renal
  TGI: 28 µM
RXF-631 renal
  TGI: 33.7 µM
SF-268 CNS
  TGI: 28.9 µM
SF-295 CNS
  TGI: 32.7 µM
SF-539 CNS
  TGI: 34.6 µM
SK-MEL-28 melanoma
  TGI: 32.9 µM
SK-MEL-5 melanoma
  TGI: 30 µM
SK-OV-3 ovarian
  TGI: 35.9 µM
SN12C renal
  TGI: 36.5 µM
SNB-19 CNS
  TGI: 30.8 µM
SNB-78 CNS
  TGI: 37.2 µM
SW-620 colon
  TGI: 33.1 µM
TK-10 renal
  TGI: 32.3 µM
U251 CNS
  TGI: 28.9 µM
UACC-257 melanoma
  TGI: 32.2 µM
UACC-62 melanoma
  TGI: 32.3 µM
UO-31 renal
  TGI: 31.7 µM

## CC(=O)/C=C\C1CC2C=CC1C2 (stereo not given)
786-0 renal
  TGI: > 100 µM
A549 NSCLC
  TGI: > 100 µM
ACHN renal
  TGI: > 100 µM
CCRF-CEM leukemia
  TGI: 70.3 µM
COLO 205 colon
  TGI: > 100 µM
DLD-1 colon
  TGI: > 100 µM
DMS 114 small cell lung
  TGI: 82.8 µM
DMS 273 small cell lung
  TGI: > 100 µM
EKVX NSCLC
  TGI: > 100 µM
HCC-2998 colon
  TGI: 73.2 µM
HCT-116 colon
  TGI: 54.5 µM
HCT-15 colon
  TGI: > 100 µM
HL-60(TB) leukemia
  TGI: 99.7 µM
HOP-18 NSCLC
  TGI: > 100 µM
HOP-62 NSCLC
  TGI: > 100 µM
HOP-92 NSCLC
  TGI: 79.9 µM
IGROV1 ovarian
  TGI: > 100 µM
K-562 leukemia
  TGI: > 100 µM
KM12 colon
  TGI: > 100 µM
KM20L2 colon
  TGI: > 100 µM
LOX IMVI melanoma
  TGI: 65.4 µM
LXFL 529 NSCLC
  TGI: > 100 µM
M14 melanoma
  TGI: > 100 µM
M19-MEL melanoma
  TGI: > 100 µM
MALME-3M melanoma
  TGI: > 100 µM
MOLT-4 leukemia
  TGI: 66.1 µM
NCI-H23 lung
  TGI: > 100 µM
NCI-H460 lung
  TGI: > 100 µM
OVCAR-3 ovarian
  TGI: > 100 µM
OVCAR-4 ovarian
  TGI: > 100 µM
OVCAR-5 ovarian
  TGI: > 100 µM
OVCAR-8 ovarian
  TGI: > 100 µM
RPMI-8226 leukemia
  TGI: > 100 µM
RXF 393 renal
  TGI: > 100 µM
RXF-631 renal
  TGI: > 100 µM
SF-268 CNS
  TGI: 76.1 µM
SF-295 CNS
  TGI: > 100 µM
SF-539 CNS
  TGI: > 100 µM
SK-MEL-2 melanoma
  TGI: > 100 µM
SK-MEL-5 melanoma
  TGI: > 100 µM
SK-OV-3 ovarian
  TGI: > 100 µM
SN12C renal
  TGI: > 100 µM
SNB-19 CNS
  TGI: > 100 µM
SNB-75 CNS
  TGI: 72.2 µM
SNB-78 CNS
  TGI: 73.5 µM
SW-620 colon
  TGI: > 100 µM
TK-10 renal
  TGI: > 100 µM
U251 CNS
  TGI: > 100 µM
UACC-62 melanoma
  TGI: > 100 µM
UO-31 renal
  TGI: > 100 µM

## O=C1CCC(c2nc3cc(Cl)ccc3o2)C(=O)N1 (stereo not given)
786-0 renal
  TGI: > 100 µM
A498 renal
  TGI: > 100 µM
A549 NSCLC
  TGI: > 100 µM
ACHN renal
  TGI: > 100 µM
CAKI-1 renal
  TGI: > 100 µM
CCRF-CEM leukemia
  TGI: > 100 µM
COLO 205 colon
  TGI: > 100 µM
DLD-1 colon
  TGI: > 100 µM
DMS 114 small cell lung
  TGI: > 100 µM
DMS 273 small cell lung
  TGI: > 100 µM
EKVX NSCLC
  TGI: > 100 µM
HCC-2998 colon
  TGI: > 100 µM
HCT-116 colon
  TGI: > 100 µM
HCT-15 colon
  TGI: > 100 µM
HL-60(TB) leukemia
  TGI: > 100 µM
HOP-18 NSCLC
  TGI: > 100 µM
HOP-62 NSCLC
  TGI: > 100 µM
HOP-92 NSCLC
  TGI: > 100 µM
HT29 colon
  TGI: > 100 µM
IGROV1 ovarian
  TGI: > 100 µM
K-562 leukemia
  TGI: > 100 µM
KM12 colon
  TGI: > 100 µM
KM20L2 colon
  TGI: > 100 µM
LOX IMVI melanoma
  TGI: > 100 µM
LXFL 529 NSCLC
  TGI: > 100 µM
M14 melanoma
  TGI: > 100 µM
M19-MEL melanoma
  TGI: > 100 µM
MALME-3M melanoma
  TGI: > 100 µM
MOLT-4 leukemia
  TGI: > 100 µM
NCI-H226 lung
  TGI: > 100 µM
NCI-H23 lung
  TGI: > 100 µM
NCI-H460 lung
  TGI: > 100 µM
NCI-H522 lung
  TGI: > 100 µM
OVCAR-3 ovarian
  TGI: > 100 µM
OVCAR-4 ovarian
  TGI: > 100 µM
OVCAR-5 ovarian
  TGI: > 100 µM
OVCAR-8 ovarian
  TGI: > 100 µM
RXF 393 renal
  TGI: > 100 µM
RXF-631 renal
  TGI: > 100 µM
SF-268 CNS
  TGI: > 100 µM
SF-295 CNS
  TGI: > 100 µM
SF-539 CNS
  TGI: > 100 µM
SK-MEL-2 melanoma
  TGI: > 100 µM
SK-MEL-28 melanoma
  TGI: > 100 µM
SK-MEL-5 melanoma
  TGI: > 100 µM
SK-OV-3 ovarian
  TGI: > 100 µM
SN12C renal
  TGI: > 100 µM
SNB-19 CNS
  TGI: > 100 µM
SNB-75 CNS
  TGI: > 100 µM
SNB-78 CNS
  TGI: > 100 µM
SR leukemia
  TGI: > 100 µM
SW-620 colon
  TGI: > 100 µM
TK-10 renal
  TGI: > 100 µM
U251 CNS
  TGI: > 100 µM
UACC-257 melanoma
  TGI: > 100 µM
UACC-62 melanoma
  TGI: > 100 µM
UO-31 renal
  TGI: > 100 µM
